Counter-ions that a name gives are not always drawn.
How the values were obtained:
[1] = system: Gaucher patient fibroblasts (Coreill Institute, GM08760); assay: GPN induced calcium release phenotypic assay on Gaucher patient fibroblasts; format: cell-based, human; settings: for Maximal % Change in GPN Response: ratio of GPN response with drug / without drug x 100; for EC50: Homo sapiens, Fibroblast, 12-point dilution curve in triplicate
[2] = system: Wild-type patient fibroblasts (Coriell Institute, GM 005659); settings: wild type patient cells
Protocol: Gaucher patient fibroblasts (Coreill Institute, GM08760) were cultured in EMEM with 15% FBS, 1% Pen/Strep at 37° C./5% CO2. Wild-type patient fibroblasts (Coriell Institute, GM 005659) were used as a control cell line. Cells are plated with a MultiFlo dispenser (800 cells/well in 30 μL of complete growth media) in black/clear bottom 384-well plates and cultured for 24 hours at 37° C., 5% CO2. Compounds of the disclosure are then added to the cells (12 point dose response curve, 150 nM to 30 uM final compound concentration using a 5.0 μL of a 7× stock solution (1.05 μM to 210 μM)) under sterile conditions and continued in culture for 72 hours at 37° C., 5% CO2. […] The data from each well were normalized with basal fluorescence by dividing the maximum fluorescence over the entire real time reading by the initial basal fluorescence.
Cells (800 cells/well) were plated with a MultiFlo dispenser (BioTek) and cultured for 24 h at 37° C., 5% CO2. […] Cells were loaded with Screen Quest™ Fluo-8 No Wash Calcium mix (ATT Bio) and analyzed for changes in response to GPN. The data from each well were normalized with basal fluorescence by dividing the maximum fluorescence over the entire real time reading by the initial basal fluorescence. […] EC50 and Hill slope values are determined using a four-parameter dose-response (variable slope) equation in GraphPad Prism.

[3] = system: β-Glucocerebrosidase (GCase); assay: β-Glucocerebrosidase (GCase) activity in lysates of compound-treated Gaucher patient fibroblasts (4-MUG substrate); format: cell-based, human; settings: 10 μM, 3 days, Gaucher patient fibroblast lysates, no change = 1
Protocol: Cellular lysates were prepared from compound treated cells and non-treated cells were included as a control. β-Glucocerebrosidase (GCase) activity was directly measured from lysates prepared from treated cells using a fluorescent substrate 4-methylumbelliferyl-β-D-glucopyranoside (MUG). Cells were washed 3× with phosphate-buffered saline (PBS) and detached by scraping. After centrifugation, The pellets were frozen on dry ice, thawed and lysed in McIlvaine (MI) buffer (100 mM sodium citrate, 200 mM sodium phosphate dibasic, 0.25% sodium taurocholate, and 0.1% Triton X-100, pH 5.2 containing protease inhibitors). Lysates are incubated with 3.0 mM 4-methylumbeliferryl-β-glucoside (4-MUG) substrate in MI buffer (50 μL) at 37° C. for 60 minutes. Reactions were stopped by addition of 0.4 M glycine, pH 10.6 (70 μL). Fluorescence was measured on a Clariostar plate reader (BMG Labtech) for one second per well using 355 nm excitation and 460 nm emission. Total protein was determined with the Bradford protein assay kit (BioRad) according to the manufacturer's instructions. The GCase activity measured after compound treatment is normalized to non-treated cells and expressed as relative activity where no change in GCAse activity is equal 1 (FIG. 3).

[4] = Gaucher patient cells, 72 hours compound treatment

Compound | Maximal % Change in GPN Response [1, 4] [%] | EC50 [1, 4] [µM] | increase in calcium response compared with 0.1% DMSO treated Gaucher patient cells ([1]; 72 hours compound treatment, GPN response) [%] | activity to increase lysosomal calcium signaling (Prestwick Chemical Library screen) ([1]; Gaucher patient cells, 72 hours, confirmed in triplicate) | increase in GPN-induced calcium response [2] | GCase activity relative to non-treated cells [3]
C=C(C)c1ccccc1C(CCCC)C(=O)c1ccc(OCCN(C)C)cc1 (stereo not drawn) [Example 17] | 275 | 2.2 |  |  |  | 
CCCCC(=Cc1ccc(OCCN(C)C)cc1)c1ccccc1 (stereo in doubt) [Example 4, (Z)—N,N-dimethyl-2-(4-(2-phenylhex-1-en-1-yl)phenoxy)ethan-1-amine trifluoroacetate] | 56 | 7.2 |  |  |  | 
CCCCC(C(=O)c1ccc(OCCN(C)C)cc1)c1ccccc1C(C)C (stereo not drawn) [Example 18, 1-(4-(2-(Dimethylamino)ethoxy)phenyl)-2-(2-isopropylphenyl)hexan-1-one] | 233 | 0.33 |  |  |  | 
CC/C(=C\c1ccccc1)c1ccc(OCCN2CCCC2)cc1 [Example 10, (E)-1-(2-(4-(1-Phenylbut-1-en-2-yl)phenoxy)ethyl)pyrrolidine] | 48 | 1.1 |  |  |  | 
CC/C(=C(\c1ccccc1)c1ccc(OCCN(C)C)cc1)c1ccccc1 [Tamoxifen, reference compound] |  |  | 200±50 | active compound | 40+/−20% | 
CCCCC(C(=O)c1ccc(OCCN(C)C)cc1)c1ccccc1 (stereo not drawn) [MC150235, 1-(4-(2-(Dimethylamino)ethoxy)phenyl)-2-phenylhexan-1-one] | 87 | 2.4 |  |  |  | increase in GCase activity
CCCCC(C(=O)c1ccc(OCCN(C)C)cc1)c1ccccc1CC (stereo not drawn) [Example 16, 1-(4-(2-(dimethylamino)ethoxy)phenyl)-2-(2-ethylphenyl)hexan-1-one] | 138 | 0.65 |  |  |  | 
CC/C(=C\c1ccccc1)c1ccc(OCCN(C)C)cc1 [Example 9, (E)-N,N-Dimethyl-2-(4-(1-phenylbut-1-en-2-yl)phenoxy)ethan-1-amine] | 53 | 3 |  |  |  | 
CC(C)CC(C(=O)c1ccc(OCCN(C)C)cc1)c1ccccc1 (stereo not drawn) [Example 14, 1-(4-(2-(Dimethylamino)ethoxy)phenyl)-4-methyl-2-phenylpentan-1-one] | 108 | 0.7 |  |  |  | 
CC/C(=C\c1ccc(OCCN(C)C)cc1)c1ccccc1 [Example 1, (E)-N,N-Dimethyl-2-(4-(2-(phenyl)but-1-en-1-yl)phenoxy)ethan-1-amine] | 70 | 6 |  |  |  | 
CC(C)C(C(=O)c1ccc(OCCN(C)C)cc1)c1ccccc1 (stereo not drawn) [Example 11, 1-(4-(2-Dimethylaminoethoxy)-phenyl)-3-methyl-2-phenylbutan-1-one] | 54 | 3.3 |  |  |  | 
C=Cc1ccccc1C(CCCC)C(=O)c1ccc(OCCN(C)C)cc1 (stereo not drawn) [Example 15, 1-(4-(2-(dimethylamino)ethoxy)phenyl)-2-(2-vinylphenyl)hexan-1-one] | 217 | 2.7 |  |  |  | 
CC/C(=C\c1ccc(OCCN2CCCC2)cc1)c1ccccc1 [Example 3, (E)-1-(2-(4-(2-phenylbut-1-en-1-yl)phenoxy)ethyl)pyrrolidine] | 175 | 5.3 |  |  |  | 
CC/C(=C/c1ccc(OCCN(C)C)cc1)c1ccc([N+](=O)[O-])cc1 [Example 6, (Z)—N,N-Dimethyl-2-(4-(2-(4-nitrophenyl)but-1-en-1-yl)phenoxy) ethan-1-amine] | 47 | 4.3 |  |  |  | 
CCC(Cc1ccc(OCCN(C)C)cc1)c1ccccc1 (stereo not drawn) [MC210155, N,N-Dimethyl-2-(4-(2-phenylbutyl)phenoxy)ethan-1-amine trifluoroacetate] | 154 | 4.8 |  |  |  | increase in GCase activity
CC(C)CCC(C(=O)c1ccc(OCCN(C)C)cc1)c1ccccc1 (stereo not drawn) [Example 13] | 191 | 1.5 |  |  |  | 
C/C(=C/c1ccc(OCCN2CCCC2)cc1)c1ccccc1 [Example 5, (Z)-1-(2-(4-(2-phenylprop-1-en-1-yl)phenoxy)ethyl)pyrrolidine] | 72 | 2.1 |  |  |  | 
CC/C(=C/c1ccc(OCCN(C)C)cc1)c1ccccc1 [Example 2, (Z)—N,N-Dimethyl-2-(4-(2-(phenyl)but-1-en-1-yl)phenoxy)ethan-1-amine trifluoroacetate] | 62 | 14.1 |  |  |  | 

Source: patent US11873267B2, “Functionalized N,N-dialkylamino phenyl ethers and their method of use” (Temple University-Of The Commonwealth System of Higher …, priority 2016, dated 2024)
